Results taken from patent US20260184697A1, “EZH1/2 INHIBITOR, PREPARATION THEREOF, AND USE THEREOF IN ANTI-TUMOR THERAPY” (JIANGSU TASLY DIYI PHARMACEUTICAL CO., LTD., priority 2022, published 2026).
Read-outs that look alike come from different tables or passages of the source.

Experiments:
[1] = target: T1, EZH2/SUZ/EED (Homo sapiens, UniProt O75530+Q15022+Q15910); assay: Inhibitory effect on EZH2 by the MTase-Glo method (Test Example 1); assay type: biochemical; conditions: EZH2/SUZ/EED 6.25 nM, H3 peptide 10 μM, SAM 3 μM, 30° C. 3 h, read-out: Test Example 1 WT EZH2 IC50
T1 construct: purchased BPS 51003
T1 sequence (Q15910 2-746 limits assumed): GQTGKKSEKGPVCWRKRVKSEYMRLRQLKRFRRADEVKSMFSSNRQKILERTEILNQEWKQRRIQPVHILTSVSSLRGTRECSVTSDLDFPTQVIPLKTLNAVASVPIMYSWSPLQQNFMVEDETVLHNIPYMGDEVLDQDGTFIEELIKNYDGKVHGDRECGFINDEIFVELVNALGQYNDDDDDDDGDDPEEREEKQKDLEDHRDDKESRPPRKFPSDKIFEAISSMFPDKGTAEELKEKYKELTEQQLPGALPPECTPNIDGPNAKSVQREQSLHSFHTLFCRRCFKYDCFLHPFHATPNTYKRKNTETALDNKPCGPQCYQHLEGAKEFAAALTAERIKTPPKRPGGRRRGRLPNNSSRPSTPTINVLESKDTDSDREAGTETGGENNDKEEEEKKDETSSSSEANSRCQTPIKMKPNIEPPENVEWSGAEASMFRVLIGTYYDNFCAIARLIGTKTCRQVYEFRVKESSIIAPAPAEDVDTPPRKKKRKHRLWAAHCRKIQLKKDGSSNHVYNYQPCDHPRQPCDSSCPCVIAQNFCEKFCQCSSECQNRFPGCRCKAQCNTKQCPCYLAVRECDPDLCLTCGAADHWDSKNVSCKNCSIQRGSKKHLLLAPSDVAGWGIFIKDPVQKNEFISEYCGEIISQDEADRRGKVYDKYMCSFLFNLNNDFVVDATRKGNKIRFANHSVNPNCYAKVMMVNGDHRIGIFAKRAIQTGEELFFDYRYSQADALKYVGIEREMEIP
T1 sequence (Q15022 2-739 partner limits assumed): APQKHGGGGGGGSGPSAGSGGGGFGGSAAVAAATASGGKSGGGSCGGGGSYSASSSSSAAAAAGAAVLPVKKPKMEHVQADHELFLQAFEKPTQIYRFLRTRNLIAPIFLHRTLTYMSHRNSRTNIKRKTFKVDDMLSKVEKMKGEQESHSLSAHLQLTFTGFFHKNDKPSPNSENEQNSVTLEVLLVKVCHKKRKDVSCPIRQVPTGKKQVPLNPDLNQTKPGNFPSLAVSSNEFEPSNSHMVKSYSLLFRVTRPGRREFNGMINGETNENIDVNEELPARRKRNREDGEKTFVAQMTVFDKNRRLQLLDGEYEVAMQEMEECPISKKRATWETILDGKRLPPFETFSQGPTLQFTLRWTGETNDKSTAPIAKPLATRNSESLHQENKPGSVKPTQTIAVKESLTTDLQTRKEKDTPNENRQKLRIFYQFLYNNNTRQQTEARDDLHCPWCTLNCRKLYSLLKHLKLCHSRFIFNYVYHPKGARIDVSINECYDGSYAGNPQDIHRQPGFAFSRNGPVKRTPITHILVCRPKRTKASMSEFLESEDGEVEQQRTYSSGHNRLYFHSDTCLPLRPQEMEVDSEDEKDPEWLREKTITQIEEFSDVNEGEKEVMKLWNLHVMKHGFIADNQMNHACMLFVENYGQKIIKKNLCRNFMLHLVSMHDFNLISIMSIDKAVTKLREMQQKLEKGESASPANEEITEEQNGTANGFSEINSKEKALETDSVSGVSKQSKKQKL
T1 sequence (O75530 2-441 partner limits assumed): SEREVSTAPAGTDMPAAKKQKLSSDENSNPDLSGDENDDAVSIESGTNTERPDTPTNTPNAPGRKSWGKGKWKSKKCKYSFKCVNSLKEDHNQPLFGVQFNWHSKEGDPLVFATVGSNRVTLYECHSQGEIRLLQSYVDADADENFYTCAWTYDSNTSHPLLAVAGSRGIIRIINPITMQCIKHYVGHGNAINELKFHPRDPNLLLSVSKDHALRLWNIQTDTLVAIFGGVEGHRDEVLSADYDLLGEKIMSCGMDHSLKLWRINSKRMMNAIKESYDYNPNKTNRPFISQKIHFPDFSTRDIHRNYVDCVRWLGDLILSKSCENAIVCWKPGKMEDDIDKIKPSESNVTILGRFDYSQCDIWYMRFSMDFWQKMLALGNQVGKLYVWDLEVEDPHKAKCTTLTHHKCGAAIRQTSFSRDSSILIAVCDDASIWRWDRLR
Summary of the method: (§1)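 EZH2/SUZ/EED (6.25 nM) or EZH1/SUZ/EED (25 nM) pre-incubated 15 min with compound in pH 7.6 Bicine buffer, 0.5% DMSO. Biotinylated H3(21-44) peptide 10 μM plus SAM 3 μM reacted 3 h at 30 °C; MTase-Glo luminescence normalized to controls, IC50 from variable-slope fit.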

[2] = test system: Karpas-422 cells; assay: Anti-proliferation by Cell Titer-Glo method (Test Example 3); assay type: cell-based; conditions: Homo sapiens
Experimental: Karpas-422 (Nanjing Kebai, CBP60629) cells were seeded in a 96-well plate (Corning, 3894) at 1,000 cells per well in growth medium (80% 1640 (Hyclone, SH30809.01)+20% FBS (Corning, 35-081-CV)), in a total of 100 μL, and then was added with 25 μL of 5-fold different concentrations of compounds diluted in growth medium. The cell growth group without compound addition was used as a positive control (maximum signal control), and the medium was used as a negative control (minimum signal control), while ensuring that the final contration of DMSO in each reaction well was 0.2%. Then the 96-well cell plate was placed in a cell culture incubator (37° C., 5% CO2) and incubated for 3 days. On the fourth day, the cell culture plate was taken out of the incubator, using a row gun to gently blow the cells up and down to mix, removing 62.5 μL of the cell suspension, adding 50 μL of growth medium and 12.5 μL of compounds of 5 times different concentrations, and then putting them in the cell incubator to incubate for 4 days. On the eighth day, the same method was used as the fourth day to treat the cells, then incubating in the cell culture incubator for 3 days. On the eleventh day, the Cell-Titer Glo (Promega, G7573) was used to detect cell viability, and a microplate reader was used to detect the signal value of luminescence.
The inhibition rate of different concentrations of compounds on cells was calculated as inhibition rate=[1−(compound signal value−negative control signal value)/(positive control signal value-negative control signal value)][…]. The IC50 of the compound on cell activity inhibition was calculated by GraphPad Prism 6 with log(inhibitor) vs. response-Variable slope model fitting. The fitting equation is: Y=Bottom+(Top−Bottom)/(1+10^((Log IC50−X)*Hill Slope)), wherein Y represents the inhibition rate, and X represents the known concentration of the compound after Log.

[3] = test system: H3K27Me3 methylation in Karpas-422 cells; assay: H3K27Me3 cell method, inhibition of H3K27Me3 methylation (Test Example 2); assay type: cell-based, human
Summary of the method: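 Karpas-422 cells, 15,000/well in 80% RPMI 1640 + 20% FBS, treated with compound dilutions (final DMSO 0.2%) for 3 days at 37 °C, 5% CO2. Cellular H3K27Me3 read by HTRF; viability in parallel by CCK8 at OD405. IC50 from log(inhibitor)-response variable-slope fit of inhibition rate.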

[4] = target: T2, EZH1/SUZ/EED (Homo sapiens, UniProt O75530+Q15022+Q92800); assay: Inhibitory effect on EZH1 by the MTase-Glo method (Test Example 1); assay type: biochemical; conditions: EZH1/SUZ/EED 25 nM, H3 peptide 10 μM, SAM 3 μM, 30° C. 3 h, read-out: Test Example 1 WT EZH1 IC50
T2 construct: purchased BPS 51006
T2 sequence (Q92800 2-747 limits assumed): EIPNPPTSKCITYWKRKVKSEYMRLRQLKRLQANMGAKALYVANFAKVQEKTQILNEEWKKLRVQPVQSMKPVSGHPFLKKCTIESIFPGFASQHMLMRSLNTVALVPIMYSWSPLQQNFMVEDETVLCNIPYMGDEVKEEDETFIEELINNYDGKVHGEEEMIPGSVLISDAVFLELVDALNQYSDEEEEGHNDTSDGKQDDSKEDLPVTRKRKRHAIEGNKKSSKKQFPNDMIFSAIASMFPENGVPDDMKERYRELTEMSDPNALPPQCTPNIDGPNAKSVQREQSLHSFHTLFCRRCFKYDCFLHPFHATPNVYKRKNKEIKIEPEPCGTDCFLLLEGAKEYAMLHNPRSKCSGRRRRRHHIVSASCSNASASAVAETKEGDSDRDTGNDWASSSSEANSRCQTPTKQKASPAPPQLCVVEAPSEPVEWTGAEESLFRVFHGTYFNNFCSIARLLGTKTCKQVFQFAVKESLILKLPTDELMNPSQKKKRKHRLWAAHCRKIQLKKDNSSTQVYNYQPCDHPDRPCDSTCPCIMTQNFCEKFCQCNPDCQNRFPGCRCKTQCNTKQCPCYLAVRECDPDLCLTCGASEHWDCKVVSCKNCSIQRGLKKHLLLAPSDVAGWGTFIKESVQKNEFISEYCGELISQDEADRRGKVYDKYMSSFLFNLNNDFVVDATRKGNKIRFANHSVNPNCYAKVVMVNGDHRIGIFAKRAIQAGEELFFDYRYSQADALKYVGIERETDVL
T2 sequence (Q15022 2-739 partner limits assumed): as the sequence (Q15022 2-739 partner limits assumed) above
T2 sequence (O75530 2-441 partner limits assumed): as the sequence (O75530 2-441 partner limits assumed) above
Summary of the method: as §1

[5] = Karpas-422 cells, Cell-Titer Glo on the eleventh day, read-out: Test Example 3 Karpas-422 cell anti-proliferation IC50
[6] = Homo sapiens, KARPAS-422, 72 h, Karpas-422 cells, 3 days incubation, HTRF signal, read-out: Test Example 2 H3K27Me3 inhibition (Karpas-422) IC50
[7] = KARPAS-422, read-out: Test Example 3 Karpas-422 cell anti-proliferation IC50(nM)
[8] = Homo sapiens, KARPAS-422, 72 h, read-out: Test Example 2 H3K27Me3 inhibition (Karpas-422) IC50(nM)

Compound	IC50 [1] [nM]	IC50 [2, 5] [nM]	IC50 [3, 6] [nM]	IC50 [4] [nM]	IC50 [2, 7] [nM]	IC50 [3, 8] [nM]	IC50 ([3]; Karpas-422 cells, 3 days incubation, HTRF signal, read-out: Test Example 2 H3K27Me3 inhibition (Karpas-422) IC50) [nM]
COC1CN([C@H]2CC[C@@H]([C@H]3COc4c(Cl)cc(C(=O)NCc5c(Cl)cc(C)[nH]c5=O)c(C)c4O3)CC2)C1 [Compound 175]	3.4	13.6	16.1	16.6			
Cc1cc(C)c(CNC(=O)c2cc(Cl)c3c(c2C)OC(C2CCC(N(C)C)CC2)CO3)c(=O)[nH]1 (stereo not drawn) [Compound 2]	3.9	42.4	31.2	88.5			
CSc1cc(C)[nH]c(=O)c1CNC(=O)c1cc(Cl)c2c(c1C)O[C@@H]([C@H]1CC[C@@H](N(C)C)CC1)CO2 [Compound 6]	2.5			4	1.3	0.59	
CSc1cc(C)[nH]c(=O)c1CNC(=O)c1cc(Cl)c2c(c1C)O[C@@H]([C@H]1CC[C@@H](N3CC(OC4CC4)C3)CC1)CO2 [Compound 11]	8.1	1.5	1.7	4.8			
COC1CN([C@H]2CC[C@@H]([C@H]3COc4c(C#N)cc(C(=O)NCc5c(SC)cc(C)[nH]c5=O)c(C)c4O3)CC2)C1 [Compound 153]	3.2	3.7	6.2	6.9			
COC1CN([C@H]2CC[C@@H]([C@H]3COc4c(Cl)cc(C(=O)NCc5c(SC)cc(C)[nH]c5=O)c(Cl)c4O3)CC2)C1 [Compound 149]	2.3	2.7	3.6	3.3			
COC1CN([C@H]2CC[C@@H]([C@H]3COc4c(F)cc(C(=O)NCc5c(SC)cc(C)[nH]c5=O)c(C)c4O3)CC2)C1 [Compound 169]	6	1.8	4.2	5.8			
COc1cc(C)[nH]c(=O)c1CNC(=O)c1cc(Cl)c2c(c1C)O[C@@H]([C@H]1CC[C@@H](N3CC(OC)C3)CC1)CO2 [Compound 97]	3.25	5.3	8.2	15.2			
Cc1cc(C)c(CNC(=O)c2cc(Cl)c3c(c2C)OC(C2CCC(N4CCCC4)CC2)CO3)c(=O)[nH]1 (stereo not drawn) [Compound 63]	11.5	341	616	375			
CSc1cc(C)[nH]c(=O)c1CNC(=O)c1cc(Cl)c2c(c1C)O[C@@H]([C@H]1CC[C@@H](N3CC4COCC4C3)CC1)CO2 (stereo partly drawn) [Compound 14]	3.7	3.3	6.8	3.7			
COC1CN([C@H]2CC[C@@H]([C@H]3COc4c(Cl)cc(C(=O)NCc5c(SC)cc(C)[nH]c5=O)c(C)c4O3)CC2)C1 [Compound 8]	5.6	1.8	2.4	6.2			
COC1CN(C2CCC(C3COc4c(Cl)cc(C(=O)NCc5c(C)cc(C)[nH]c5=O)c(C)c4O3)CC2)C1 (single isomer, unassigned) [Compound 61]	8.8	93.8		162			73.8
CSc1cc(C)[nH]c(=O)c1CNC(=O)c1cc(C#N)c2c(c1C)O[C@@H]([C@H]1CC[C@@H](N3CC(OCCF)C3)CC1)CO2 [Compound 161]	3.7	2.4	2.2	5.5			
COc1cc(C)[nH]c(=O)c1CNC(=O)c1cc(Cl)c2c(c1C)O[C@@H]([C@H]1CC[C@@H](N3CC(OCCF)C3)CC1)CO2 [Compound 109]	2	2.5	1.8	3.8			
Cc1cc(C)c(CNC(=O)c2cc(Cl)c3c(c2C)OC[C@H]([C@H]2CC[C@@H](N(C)C)CC2)O3)c(=O)[nH]1 [Compound 56]	340	> 1000	944	810			
CSc1cc(C)[nH]c(=O)c1CNC(=O)c1cc(C#N)c2c(c1C)O[C@@H]([C@H]1CC[C@@H](N3CC(OC4CC4)C3)CC1)CO2 [Compound 159]	1.1	2.3	1.4	7			
CSc1cc(C)[nH]c(=O)c1CNC(=O)c1cc(Cl)c2c(c1C)O[C@@H]([C@H]1CC[C@@H](N3CCC3)CC1)CO2 [Compound 32]	5.1			5.7	2	1.7	
Cc1cc(C)c(CNC(=O)c2cc(Cl)c3c(c2Cl)O[C@@H]([C@H]2CC[C@@H](N(C)C)CC2)CO3)c(=O)[nH]1 [Compound 143]	5.5			39.9	10.7	22	
Cc1cc(C)c(CNC(=O)c2cc(Cl)c3c(c2C)O[C@H]([C@H]2CC[C@@H](N(C)C)CC2)CO3)c(=O)[nH]1 [Compound 54]	250	> 1000	> 1000	400			
[2H]C([2H])([2H])OC1CN([C@H]2CC[C@@H]([C@H]3COc4c(Cl)cc(C(=O)NCc5c(SC)cc(C)[nH]c5=O)c(C)c4O3)CC2)C1 [Compound 20]	3.1	1.6	3.2	3.3			
COc1cc(C)[nH]c(=O)c1CNC(=O)c1cc(Cl)c2c(c1C)O[C@@H]([C@H]1CC[C@@H](N(C)C)CC1)CO2 [Compound 94]	3	5.1	2.8	8.1			
COc1cc(C)[nH]c(=O)c1CNC(=O)c1cc(Cl)c2c(c1C)OC(C1CCC(N(C)C)CC1)CO2 (stereo not drawn) [Compound 5]	2.3	23.2	7.9	26			
Cc1cc(C)c(CNC(=O)c2cc(Cl)c3c(c2C)OC[C@@H]([C@H]2CC[C@@H](N(C)C)CC2)O3)c(=O)[nH]1 [Compound 55]	4.5	47.3	19.4	150			
COCCOC1CN([C@H]2CC[C@@H]([C@H]3COc4c(Cl)cc(C(=O)NCc5c(OC)cc(C)[nH]c5=O)c(C)c4O3)CC2)C1 [Compound 101]	3.1	3.8	2.2	5.5			
Cc1cc(C)c(CNC(=O)c2c(C)c3c(c(Cl)c2F)OC[C@H](C2CCC(N(C)C)CC2)O3)c(=O)[nH]1 (stereo partly drawn) [Compound 130]	12.6			201	115	209	
CSc1cc(C)[nH]c(=O)c1CNC(=O)c1cc(Cl)c2c(c1C)OC(C1CCC(N(C)C)CC1)CO2 (stereo not drawn) [Compound 3]	3.3	7.6	2.1	4.4			
CSc1cc(C)[nH]c(=O)c1CNC(=O)c1cc(Cl)c2c(c1C)O[C@@H]([C@H]1CC[C@@H](N3CCN(C)CC3)CC1)CO2 [Compound 18]	3.5	17.7	22.8	7.4			
